Results taken from patent publication US4849410A, “Pseudopterosin and synthetic derivatives thereof” (The Regents of the University of California, priority 1987, dated 1989).

Tests used:
[1] = test system: Arachidonic Acid (A.A.) Induced Topical Inflammation of the Mouse Ear; experiment: Arachidonic acid induced topical inflammation of the mouse ear; format: in vivo; conditions: A.A. 25.0 ug; 50.0 ug/ear
sea urchin sperm = experiment: Sperm Motility Assay; format: cell-based; conditions: 16 microgram/ml (10^-5 m)
Description: Male sea urchins are induced to spawn by injection of 0.5M KCl into the coelomic cavity. Sperm is collected via a pasteur pipette and stored in a test tube on ice. One drop of undiluted sperm is added to 25 ml of filtered fresh seawater, then 1.0 ml volumes of this solution are immediately added to test tubes containing 10 microliter test solution. Aliquots of sperm from each tube are observed microscopically for motility at a time two minutes after addition of sperm to test solution.
(§1) The vheicle or carrier for the compounds used in the inflammatory and analgesic assays was as follows; For the mouse ear inflammatory assay, the vehicle was acetone. Controls received 25 microliters of acetone. Test compounds were applied to the experimental animals in 25 microliter volumes. For the sperm motility and fertilized sea urchin egg assays, the compounds were dissolved in 10 microliters undenatured ethanol.

[2] = test system: Fertilized Sea Urchin Egg; experiment: Fertilized Sea Urchin Egg Inhibition of Cleavage Assay for Anti-proliferation; format: cell-based; conditions: doses as low as
Description: c. Fertilized Sea Urchin Egg Inhibition of Cleavage Assay for Anti-proliferation
Sea urchins are induced to spawn by injection of 0.5M KCl into the coelomic cavity. Test compound is added to a 1% slurry of eggs within 5 minutes following fertilization and incubated until the completion of the division in control slurry, 90-120 minutes. Inhibition is measured as the present of undivided cells in the slurry at the end of this incubation.
as §1

P388 leukemia = experiment: Evaluation in mice bearing ip P388 leukemia; format: in vivo, female B6D2F1 mice; conditions: for Increase to Lifespan / Median Survival Time / Weight Change Day 5 / Weight Change Day 9: Days 1-5
Description: Compound I was also evaluated in mice bearing P388 Leukemia as follows:
Compound I was administered to the mice as a solution by first dissolving it in N,N-dimethylacetamide, adding an equal volume of Cremophor EL and then 8 volumes of water. The drug concentration was such that the desired dose was delivered in a volume of 0.5 ml per mouse. Dilutions from the highest dose in a dose-response study were made by the addition of water so that organic component of the formulation decreased with dose reduction; the drug remained in solution.
10^6 P388 leukemia cells were implanted intraperitoneal in female B6D2F1 mice which were randomized to treatment groups of six animals each. Treatment was initiated 24 hours after tumor implantation and was continued daily for five days (Cisplatin was administered on Days 1 and 5 for the Group 1 mice). Mice were weighted as groups on Days 1, 5 and 9 to provide an indication of drug toxicity. Mice were monitored for survival daily for 45 days, and the median day of death was determined compared to three groups of untreated controls to provide percent increase in lifespan (ILS). ILS values of greater than or equal to 40 percent represent actual reduction in tumor cell burden during the course of treatment and are taken as indications of biologically significant antitumor effect.

[3] = test system: M5076 reticulum cell sarcoma; experiment: Activity in mice bearing ip M5076 reticulum cell sarcoma; format: in vivo, female B6D2F1 mice
Description: Compound I was also evaluated for activity against solid tumors as follows:
One-half ml of a 10 percent (v:v) brei of tumor cells prepared from solid B16 melanoma or M5076 reticulum cell sarcoma was implanted ip in female B6D2F1 mice which were randomized to treatment groups of 8 animals each. Treatment was initiated 24 hours after tumer inoculation and was continued daily for 10 days (cisplatin was administered q4Dx4 on Days 1, 5, 9 and 13). Mice were monitored daily for 60 days, and the median day of death was determined compared to three groups of untreated controls to provide percent increase in lifespan (ILS). ILS values of greater than or equal to 50 percent represent biologically significant antitumor effects. Cisplatin was curative in M5076 with 6/8 tumor-free survivors on Day 60 at the top dose level.

[4] = Side effects and mortality, intraperitoneal administration to mice; format: in vivo; conditions: for Mortality: on day after administration
Description: Doses up to 50 mg/kg administered intraperitoneally to mice have no effect. […] Mortality at 100 mg/kg=2/10 on day after administration, at 200 mg/kg=2/4 also on day after administration.

[5] = test system: phenyl-p-benzoquinone (PQ) writhing; experiment: Phenyl-p-benzoquinone Assay for Analgesia; format: in vivo, mouse; conditions: for % Inhibition (writhing): s.q.
[6] = CNS activity and toxicity in the comparative tests; conditions: during the anti-inflammatory assay
[7] = 100 mg/kg and above intraperitoneally

CC(C)=C[C@H]1C[C@H](C)[C@H]2CC[C@H](C)c3c(O[C@@H]4OC[C@@H](O)[C@H](O)[C@H]4O)c(O)c(C)c1c32 [Compound I, pseudopterosin A]
Ear Weight Mean ± S.E.M. [1]: 13.33 ± 0.38 mg
inhibition of sperm motility (sea urchin sperm): totally inhibits
dose that totally inhibits cell division [2]: 7 µM
Increase to Lifespan (P388 leukemia; Group 2, 7.9 mg/kg ip): 10%
Median Survival Time (P388 leukemia; Group 2, 7.9 mg/kg ip): 11 days
Weight Change Day 5 (P388 leukemia; Group 2, 7.9 mg/kg ip): +1.1 gm
Weight Change Day 9 (P388 leukemia; Group 2, 7.9 mg/kg ip): +3.6 gm
Increase to Lifespan (P388 leukemia; Group 2, 11.9 mg/kg ip): 15%
Median Survival Time (P388 leukemia; Group 2, 11.9 mg/kg ip): 11.5 days
Weight Change Day 5 (P388 leukemia; Group 2, 11.9 mg/kg ip): +0.7 gm
Weight Change Day 9 (P388 leukemia; Group 2, 11.9 mg/kg ip): +2.5 gm
Increase to Lifespan (P388 leukemia; Group 2, 17.8 mg/kg ip): 15%
Median Survival Time (P388 leukemia; Group 2, 17.8 mg/kg ip): 11.5 days
Weight Change Day 5 (P388 leukemia; Group 2, 17.8 mg/kg ip): 0 gm
Weight Change Day 9 (P388 leukemia; Group 2, 17.8 mg/kg ip): +2.8 gm
Increase to Lifespan (P388 leukemia; Group 2, 26.7 mg/kg ip): 25%
Median Survival Time (P388 leukemia; Group 2, 26.7 mg/kg ip): 12.5 days
Weight Change Day 5 (P388 leukemia; Group 2, 26.7 mg/kg ip): -0.7 gm
Weight Change Day 9 (P388 leukemia; Group 2, 26.7 mg/kg ip): +3.4 gm
Increase to Lifespan (P388 leukemia; Group 2, 40 mg/kg ip): 30%
Median Survival Time (P388 leukemia; Group 2, 40 mg/kg ip): 13 days
Weight Change Day 5 (P388 leukemia; Group 2, 40 mg/kg ip): -2.1 gm
Weight Change Day 9 (P388 leukemia; Group 2, 40 mg/kg ip): +2.2 gm
Increase to Lifespan (P388 leukemia; Group 2, 60 mg/kg ip): 65%
Median Survival Time (P388 leukemia; Group 2, 60 mg/kg ip): 16.5 days
Weight Change Day 5 (P388 leukemia; Group 2, 60 mg/kg ip): -3.2 gm
Weight Change Day 9 (P388 leukemia; Group 2, 60 mg/kg ip): -0.5 gm
Increase to Lifespan (P388 leukemia; Group I, 1.5 mg/kg ip): 27%
Median Survival Time (P388 leukemia; Group I, 1.5 mg/kg ip): 14 days
Weight Change Day 5 (P388 leukemia; Group I, 1.5 mg/kg ip): +0.1 gm
Weight Change Day 9 (P388 leukemia; Group I, 1.5 mg/kg ip): +4.6 gm
Increase to Lifespan (P388 leukemia; Group I, 3 mg/kg ip): 27%
Median Survival Time (P388 leukemia; Group I, 3 mg/kg ip): 14 days
Weight Change Day 5 (P388 leukemia; Group I, 3 mg/kg ip): +0.4 gm
Weight Change Day 9 (P388 leukemia; Group I, 3 mg/kg ip): +4.2 gm
Increase to Lifespan (P388 leukemia; Group I, 6 mg/kg ip): 36%
Median Survival Time (P388 leukemia; Group I, 6 mg/kg ip): 15 days
Weight Change Day 5 (P388 leukemia; Group I, 6 mg/kg ip): +0.7 gm
Weight Change Day 9 (P388 leukemia; Group I, 6 mg/kg ip): +2.9 gm
Increase to Lifespan (P388 leukemia; Group I, 12 mg/kg ip): 45%
Median Survival Time (P388 leukemia; Group I, 12 mg/kg ip): 16 days
Weight Change Day 5 (P388 leukemia; Group I, 12 mg/kg ip): -2.6 gm
Weight Change Day 9 (P388 leukemia; Group I, 12 mg/kg ip): +1.3 gm
Increase to Lifespan (P388 leukemia; Group I, 24 mg/kg ip): 82%
Median Survival Time (P388 leukemia; Group I, 24 mg/kg ip): 20 days
Weight Change Day 5 (P388 leukemia; Group I, 24 mg/kg ip): +0.4 gm
Weight Change Day 9 (P388 leukemia; Group I, 24 mg/kg ip): -0.6 gm
maximally tolerated dose (P388 leukemia; a daily dose in this range, from weight loss): ~60 mg/kg/day
activity in mice bearing intraperitoneal P388 leukemia (P388 leukemia; mouse, in vivo, ip): demonstrated reproducible activity
activity in mice bearing intraperitoneal P388 leukemia (P388 leukemia; second group, 60 mg/kg/day): significant activity
activity in mice bearing intraperitoneal P388 leukemia (P388 leukemia; second group, dose similar to 24 mg/kg/day): ineffective
Increase to Lifespan ([3]; 8.64 mg/kg ip): -2%
Median Survival Time ([3]; 8.64 mg/kg ip): 20.5 days
Weight Change on Day 9 ([3]; 8.64 mg/kg ip): +0.1 gm
Increase to Lifespan ([3]; 14.4 mg/kg ip): 0%
Median Survival Time ([3]; 14.4 mg/kg ip): 21 days
Weight Change on Day 9 ([3]; 14.4 mg/kg ip): +0.2 gm
Increase to Lifespan ([3]; 24 mg/kg ip): 0%
Median Survival Time ([3]; 24 mg/kg ip): 21 days
Weight Change on Day 9 ([3]; 24 mg/kg ip): +0.6 gm
Increase to Lifespan ([3]; 40 mg/kg ip): -2%
Median Survival Time ([3]; 40 mg/kg ip): 20.5 days
Weight Change on Day 9 ([3]; 40 mg/kg ip): -1.1 gm
Increase to Lifespan ([3]; 66.7 mg/kg ip): 2%
Median Survival Time ([3]; 66.7 mg/kg ip): 21.5 days
Weight Change on Day 9 ([3]; 66.7 mg/kg ip): -2.9 gm
antitumor activity ([3]; M5076 reticulum cell sarcoma): did not demonstrate significant antitumor activity
return to normal activity [4, 7]: ≤ 30 min
side effects [4, 7]: mild excitation and writhing in some animals
Mortality ([4]; 100 mg/kg): 2/10
Mortality ([4]; 200 mg/kg): 2/4
side effects ([4]; up to 50 mg/kg intraperitoneally): no effect
ED50 ([5]; 50% inhibition of writhing, n = 10 mice/dose): 4.22 mg/kg
% Inhibition (writhing) ([5]; 2.0 mg/kg): 29%
% Inhibition (writhing) ([5]; 3.5 mg/kg): 46%
% Inhibition (writhing) ([5]; 5.0 mg/kg): 38%
% Inhibition (writhing) ([5]; 7.5 mg/kg): 79%
% Inhibition (writhing) ([5]; 10 mg/kg): 73%
% Inhibition (writhing) ([5]; 20 mg/kg): 96%
CNS stimulation [6]: exhibited the CNS stimulation
